Assay results: patent publication US12049455B2, “Compositions and methods for the prevention and/or treatment of mitochondrial disease, including Friedreich's ataxia” (Stealth BioTherapeutics Inc., priority 2019, dated 2024)

Columns and labels:
[1] = system: Nrf-2; experiment: Nrf-2 Activation Assay (Nrf-2 Assay); type: cell-based, human; settings: 1 μM compound, 24 hours
Procedure: This assay was developed internally and was designed to determine if the novel test compounds disclosed herein active Nrf-2 and thereby promote resolution of inflammation by the mechanism believed to be responsible for the activity of omaveloxolone.
Briefly, GM03665 Friedreich Ataxia patient fibroblasts were grown in 12 Well Plates (TC Cell+F) (Sarstedt, Numbrecht Germany), at a density of […] in DMEM/F12 (Gibco, ThermoFisher Scientific, Waltham, MA, USA) cell media supplemented with 10% FBS and 1% Pen/Strep. Cells were left to rest overnight at 37° C. in a humidified atmosphere with 5% CO2 to allow attachment of the cells to the culture plate. Before continuing assay visual inspection of each well was done by light microscopy to detect any possible bacterial and fungal contamination. […] After incubation, cell media was removed and total RNA from the cells was isolated using E.Z.N.A.® Total RNA Kit I (Omega Bio-tek, Norcross, Georgia, USA) spin columns, and first-strand cDNA synthesis was carried out using a High Capacity cDNA Reverse Transcription Kit (Applied Biosystems™, Foster City, CA) following the manufacturer's instructions. qPCR analysis of gene expression was performed by mixing SYBR® Green Master Mix (Applied Biosystems™) with synthesized cDNA and forward and reverse primers. […] (60 cycles), and 95° C. for 60 seconds, followed by melt curve analysis at 72-95° C., 0.3° C./sec. The relative expression levels for each gene were calculated with the ΔΔCt method and normalized to the expression of REEP5 and SNRPD3 genes.

[2] = system: frataxin deficient fibroblasts (GM03665); type: cell-based; settings: summary of Table 7
[3] = system: GM03665 cells; experiment: RSL3 Toxicity Assay (RSL3 Assay); type: cell-based, human; settings: protection of Friedreich's ataxia fibroblasts from RSL3
Procedure: In brief, GM03665 cells (Coriell Institute) were seeded in 96-well plates (Sarstedt) in DMEM cell culture media containing 10% Fetal Bovine serum and 1% Penicillin-Streptomycin (Pen-Strep) antibiotic mix at the amount of 2×10^4/mL (100 μL or 2×10^3 cells per well). Cells were left to rest overnight at 37° C. in a humidified atmosphere with 5% CO2 to allow attachment of the cells to the culture plate. Test compounds were prepared as DMSO stocks (10 mM) and were serially diluted in cell culture media to obtain 2× working solutions. Cell media was discarded and replaced by 50 μL of test compound solutions or cell media with vehicle for control wells. Within 15 minutes, 2× working solution (4 μM) of 1S,3R-RSL3 (CAS #1219810-16-8, Sigma-Aldrich) (diluted from 5 mM DMSO stock in cell culture media) was added. Final reaction volume was 100 μL and final DMSO concentration in reaction was kept below 0.2% (v/v) and equal in all wells. Final RSL3 concentration was 2 μM and test compound final concentrations in reaction were up to 1000 nM. After 24 hours of incubation cell viability was assessed by MTT test. MTT (Sigma-Aldrich) solution 1 mg/mL in 1×PBS (pH=7,4) was prepared 1 hour before the assay and filtered through Filtropur S 0.2 filters (Sarstedt). […] Absorption at 570 and 650 nm was measured using Hidex Sense microplate reader.

[4] = system: HepG2 cells; experiment: Rotenone Oxygraph Assay (high-resolution respirometry of intact HepG2 cells); type: cell-based, human; settings: for active in Complex I by-pass (in words): summary of Table 7 (Rotenone ATP and Rotenone Oxygraph assays)
Procedure: The Oxygraph-2 k (O2k, OROBOROS INSTRUMENTS, Austria) was used for measurements of respiration of intact cells. The respirometry was performed in Dulbecco's Modified Eagle Medium (DMEM) high glucose without supplements. All experiments were performed at 37° C.
HepG2 cells (ATCC collection code HB-8065™) were cultured in 10 cm^2 culture dishes in DMEM high glucose medium supplemented with 10% fetal bovine serum (FBS) and 100 units/mL penicillin and 100 μg/mL streptomycin until approximately 90% confluence was reached. Immediately prior to performing the respirometric assay, the cells were washed with media without FBS, trypsinized and resuspended in DMEM high glucose without FBS.
The final concentration of intact cells in the O2k-chamber was 0.5·10^6/mL. After stabilization of respiration, the Complex I inhibitor, rotenone, at 1 μM final concentration was added to inhibit electron flux via Complex I. Then, compound to be tested was added at 10 μM final concentration, and the change in respiration rate of intact cells was monitored.

Molecule | activation of Nrf-2 responsive genes (in words, FIG. 7) [1] | activity in the BSO assay (in words) [2] | activity in the RSL3 Assay (in words) [3] | active in Complex I by-pass (in words) [4] | Rotenone Oxygraph Assay % Increase (Table 7) ([4]; intact HepG2 cells, rotenone 1 μM, compound 10 μM) | Percent increase in ATP (Rotenone Oxygraph Assay, Table 4) ([4]; intact HepG2 cells, rotenone 1 μM, compound 10 μM, change in respiration rate) | Nrf-2 Assay (Table 7) ([1]; GM03665 fibroblasts, qPCR of Nrf-2 responsive genes)
CC1=C(C)C(=O)C(CC[C@](C)(O)CC/C=C(\C)CC/C=C(\C)CCC=C2COC2)=C(C)C1=O [Compound E, 2-((R,6E,10E)-3-hydroxy-3,7,11-trimethyl-14-(oxetan-3-ylidene)tetradeca-6,10-dien-1-yl)-3,5,6-trimethylcyclohexa-2,5-diene-1,4-dione] | do not activate |  |  |  |  |  | 
COC1=C(OC)C(=O)C(CCCCCCCCCCO)=C(C)C1=O [Idebenone, reference compound] |  | very weakly active/borderline inactive |  |  |  |  | 
CC1(C)CC[C@]2(NC(=O)C(C)(F)F)CC[C@]3(C)[C@H](C(=O)C=C4[C@@]5(C)C=C(C#N)C(=O)C(C)(C)[C@@H]5CC[C@]43C)[C@@H]2C1 [Omaveloxolone, reference compound] | positive |  | completely inactive | are not |  |  | 
(R)-2-(3-hydroxy-3-methyl-4-(3-(trimethylsilyl)propoxy)butyl)-3,5,6-trimethylcyclohexa-2,5-diene-1,4-dione [Compound M] | do not activate | active | active | active | 56.6 +/− 11.3% | 56.6 +/− 11.3% | Inactive
